The test system of series [1] is NCI-H1975 (adenocarcinoma) and L78 (squamous carcinoma). Nature of the series: Median survival of lung cancer bearing nude mice after treatment. The settings on record: tumor bearing nude mice, tail vein injection. The series is classed as in vivo, human.
Method: Two human lung cancer cell lines comprising NCI-H1975 (adenocarcinoma) and L78 (squamous carcinoma) were maintained in RPMI 1640 (GIBCO, Mississauga, Canada) supplemented with 10% heat-inactivated calf serum (HyClone, Logan, Utah) and L-glutamine (Beyotime, Jiangsu, China) in an incubator at 37° C. with 5% CO2. Cells were harvested with trypsin/EDTA, washed with PAS twice and re-suspended in free serum culture medium at a concentration of 5×10^6 cells/mL. The suspended cells (0.2 mL) were inoculated s.c. into the back of nude mice to establish the lung cancer models, respectively. There are twelve nude mice in each group of cancer model. Tumor growth and general states such as mental, diet and weight were monitored periodically. When tumors reached approximately 1 cm in mean diameter, the tumor bearing mice were used in therapeutic efficacy studies.
The tumor size was measured two dimensionally on days 3, 6, 9, 12, 15, 18, 21, 24, 27 and 30 after injection, while mice weight was also determined. The tumor volume was calculated by the formula volume V=(4/3)×π×R1×R2, where R1 is radius 1 and R2 is radius 2 and R1<R2. Growth curves of the tumors were constructed according to these tumor volumes.
The nature of series [2]: Toxicity of radiotherapeutic agent in mice bearing lung cancer cells (hematology, serum biochemistry, histopathology). Format: in vivo. The procedure: After treatment with radiotherapeutic agent for three weeks, the mice were sacrificed and the major tissues or organs such as blood, liver, kidneys, heart, lungs and spleen were removed completely. A routine blood test was performed using an automatic hematology analyzer to measure the following parameters: white blood cell (WBC), red blood cell (RBC) and platelet (PLT) count. Clinical biochemicals parameters measured with an automated biochemical analyzer were aspartate transferase (AST), alanine transferase (ALT), blood urea nitrogen (BUN) and creatinine (CRE). Histopathological and ultrastructural observations were performed on the preserved organs and tissues stated above.

The mark [3] stands for this setting: mice bearing lung cancer (24 h).

The structures appear in SMILES notation.

Consider `[131I-].[Na+]` [^131I, iodine-131], for which the median survival time in series [1] is reported as 42 days. In series [2] (setting [3]), this compound had an ALT of 60.7 ± 7.8 U/L, an AST of 171.7 ± 0.8 U/L, a BUN of 9.4 ± 1.3 mmol/L and a CRE of 42.7 ± 3.8 µmol/L. In series [2] (setting [3]), this compound gave a PLT of 991.2 ± 52.5 G/L, an RBC of 7.8 ± 0.2 T/L and a WBC of 13.6 ± 0.7 G/L. Moreover, the “leukocyte count versus control” value in series [2] (mice bearing lung cancer cells) is on record as “decrease”.

(Values after patent US9234002B2, “Small peptide specific for lung cancer and application thereof” (Guangzhou Peptide Medical Technology Co., Ltd., priority 2012, dated 2016).)
